Measurements published in patent US6602900B2, “Cyclopentane heptan(ENE)oic acid, 2-heteroarylalkenyl derivatives as therapeutic agents” (Allergan, Inc., priority 1992, dated 2003).

How the values were obtained:
[1] = test system: intraocular pressure; settings: ocular; cited from earlier work
[2] = test system: ocular surface; settings: humans; cited from earlier work
[3] = test system: Dog intraocular pressure; assay: Dog intraocular pressure by applanation pneumatonometry; format: in vivo; settings: dogs
Experimental: The compounds were prepared at the said concentrations in a vehicle comprising 0.1% polysorbate 80 and 10 mM TRIS base. Dogs were treated by administering 25 μl to the ocular surface, the contralateral eye received vehicle as a control. Intraocular pressure was measured by applanation pneumatonometry. Dog intraocular pressure was measured immediately before drug administration and at 6 hours thereafter.

[4] = test system: PGF2α-sensitive receptor provisionally termed FPVASC; assay: Relaxation of smooth muscle of isolated rabbit jugular vein; format: cell-based; settings: isolated rabbit jugular vein relaxation; read-out: EC50 (nM) FPVASC
Experimental: (§1) Activity at different prostanoid receptors was measured in vitro in isolated smooth muscle preparations. FP-activity was measured as contraction of the isolated feline iris sphincter. EP1-activity was measured as contraction of the longitudinal smooth muscle of the isolated guinea pig ileum. EP3-activity was measured as inhibition of the twitch response induced by electrical field stimulation in the isolated guinea pig was deferens and as contraction of the longitudinal smooth muscle of the isolated chick ileum. Activity was also measured as relaxation of smooth muscle of isolated rabbit jugular vein a preparation which appears to contain a unique PGF2α-sensitive receptor provisionally termed FPVASC. TP-vasoconstrictor activity was measured as contraction of rings of the isolated rat thoracic aorta. Effects on platelets from healthy human donors were measured by incubating platelet-rich plasma with the compounds described herein. Inhibition of aggregation was determined by the ability of the compounds described herein to inhibit platelet aggregation in platelet-rich plasma induced by 20 μM ADP.

[5] = target: T1, EP1 receptor (Cavia porcellus, UniProt A0A286XHJ6); assay: EP1-activity: contraction of the longitudinal smooth muscle of the isolated guinea pig ileum; format: cell-based
T1 sequence (A0A286XHJ6 1-405): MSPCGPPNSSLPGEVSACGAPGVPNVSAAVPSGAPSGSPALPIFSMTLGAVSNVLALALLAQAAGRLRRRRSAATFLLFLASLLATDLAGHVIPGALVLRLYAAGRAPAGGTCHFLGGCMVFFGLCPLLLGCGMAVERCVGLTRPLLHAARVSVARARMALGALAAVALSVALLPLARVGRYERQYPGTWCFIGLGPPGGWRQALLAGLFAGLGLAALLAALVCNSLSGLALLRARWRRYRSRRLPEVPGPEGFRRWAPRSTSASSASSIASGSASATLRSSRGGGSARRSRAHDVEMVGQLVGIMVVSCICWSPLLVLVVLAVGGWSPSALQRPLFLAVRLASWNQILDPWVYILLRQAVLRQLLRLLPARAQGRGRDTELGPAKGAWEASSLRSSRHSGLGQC
Experimental: as §1

[6] = test system: Dog eye (miosis); assay: Miosis in dogs after topical dosing; format: in vivo
[7] = test system: Dog eye (hyperemia); assay: Ocular surface hyperemia in dogs after topical dosing; format: in vivo; parameters: scale not given here
[8] = target: T2, TP receptor (Rattus norvegicus, UniProt P34978); assay: TP-vasoconstrictor activity: contraction of rings of the isolated rat thoracic aorta; format: cell-based; settings: isolated rat thoracic aorta contraction; read-out: EC50 (nM) TP
T2 construct: rings of the isolated rat thoracic aorta; from tissue; host or cells: isolated rat thoracic aorta rings
T2 sequence (P34978 1-341): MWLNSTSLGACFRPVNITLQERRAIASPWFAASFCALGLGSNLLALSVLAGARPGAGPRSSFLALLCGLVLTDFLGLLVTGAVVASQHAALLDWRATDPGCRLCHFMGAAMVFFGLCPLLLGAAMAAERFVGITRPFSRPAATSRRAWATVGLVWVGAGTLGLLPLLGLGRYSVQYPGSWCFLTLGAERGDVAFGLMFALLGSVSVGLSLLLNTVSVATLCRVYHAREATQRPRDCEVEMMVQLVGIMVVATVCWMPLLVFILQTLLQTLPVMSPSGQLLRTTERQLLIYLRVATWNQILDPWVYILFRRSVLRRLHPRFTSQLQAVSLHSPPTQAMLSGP
Experimental: as §1

[9] = target: T3, EP3 receptor (UniProt A0A286XLZ9); assay: EP3-activity: inhibition of the twitch response induced by electrical field stimulation in the isolated guinea pig vas deferens; format: cell-based; settings: pa = printed beside some values, read-out: EC50 (nM) EP3, first value of the cell
T3 sequence (A0A286XLZ9 1-363): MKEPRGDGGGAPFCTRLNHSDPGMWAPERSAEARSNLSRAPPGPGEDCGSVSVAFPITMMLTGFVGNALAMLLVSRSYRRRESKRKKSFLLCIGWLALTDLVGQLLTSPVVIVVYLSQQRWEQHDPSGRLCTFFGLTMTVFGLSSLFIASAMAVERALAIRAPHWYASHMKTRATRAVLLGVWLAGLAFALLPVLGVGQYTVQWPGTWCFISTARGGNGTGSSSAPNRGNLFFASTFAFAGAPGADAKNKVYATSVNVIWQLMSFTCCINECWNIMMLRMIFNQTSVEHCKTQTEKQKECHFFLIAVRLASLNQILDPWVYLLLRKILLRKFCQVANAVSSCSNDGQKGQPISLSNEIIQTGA
Experimental: as §1

EC50 [4] | EC50 [5] | Miosis ([6]; 0.1%) | Hyp (hyperemia score) ([7]; 0.1%) | EC50 [8] | EC50 [9] | Molecule | ocular hypotensive effect (in words) [3] | also measured
– | – | – | – | – | – | CCCCC[C@H](O)/C=C/[C@@H]1[C@@H](C/C=C\CCCC(=O)OC(C)C)[C@@H](O)C[C@H]1O [isopropyl ester of PGF2α] | – | hypotensive potency versus parent compound (in words) [1]: significantly greater hypotensive potency than the parent compound; side effects of topical ocular use (in words) [2]: ocular surface (conjunctival) hyperemia and foreign-body sensation
– | – | – | – | – | – | O=C(O)CCC/C=C\C[C@@H]1[C@@H](/C=C/[C@@H](O)CCc2ccsc2)[C@H](O)C[C@@H]1O [Compound 4p, 7-[3α,5α-Dihydroxy-2-(3α-hydroxy-5-(3-thienyl)-1E-pentenyl)cyclopentyl]-5Z-heptenoic acid] | excellent ability to lower intraocular pressure | –
– | – | – | – | – | – | Cc1c(Br)csc1CCC(O)/C=C/C1C(O)CC(O)C1C/C=C\CCCC(N)=O (stereo not drawn) [Compound 8u] | pronounced ocular hypotensive effect | –
– | – | – | – | – | – | O=C(O)CCC/C=C\C[C@@H]1[C@@H](/C=C/[C@@H](O)CCc2cc(Cl)sc2Cl)[C@H](O)C[C@@H]1O [Compound 4g, 7-[3α,5α-Dihydroxy-2-(3α-hydroxy-5-(3-(2,5-dichloro)thienyl)-1E-pentenyl)cyclopentyl]-5Z-heptenoic acid] | pronounced ocular hypotensive effect | –
– | – | – | – | – | – | NC(=O)CCC/C=C\CC1C(O)CC(O)C1/C=C/C(O)CCc1sccc1I (stereo not drawn) [Compound 8t] | pronounced ocular hypotensive effect | –
– | – | – | – | – | – | prostaglandin F2α [PGF2α] | – | side effects of topical ocular use (in words) [2]: ocular surface (conjunctival) hyperemia and foreign-body sensation
20 nM | > 10000 nM | pinpt | 0.38 | 4010 nM | 43 nM | O=C(O)CCC/C=C\C[C@@H]1[C@@H](/C=C/[C@@H](O)CCc2cccs2)[C@H](O)C[C@@H]1O | – | –
31 nM | > 10000 nM | pinpt | 0.79 | > 10000 nM | > 10000 nM | O=C(O)CCC/C=C\C[C@@H]1[C@@H](/C=C/[C@H](O)CCc2cccs2)[C@H](O)C[C@@H]1O | – | –
> 7690 nM | > 10000 nM | pinpoint | 0.67 | ~10000 nM | 44 nM | O=C(O)CCC/C=C\C[C@@H]1[C@@H](/C=C/[C@@H](O)CCc2ccco2)[C@H](O)C[C@@H]1O | – | Miosis ([6]; 0.01%): mild; Hyp (hyperemia score) ([7]; 0.01%): 0.54
– | – | – | – | – | – | NC(=O)CCC/C=C\CC1C(O)CC(O)C1/C=C/C(O)CCc1scc(Br)c1Br (stereo not drawn) [Compound 8v] | pronounced ocular hypotensive effect | –
> 7140 nM | > 10000 nM | pinpt | 1.38 | ~10000 nM | 305 nM | Cc1cc(CC[C@H](O)/C=C/[C@@H]2[C@@H](C/C=C\CCCC(=O)O)[C@@H](O)C[C@H]2O)cs1 | – | Miosis ([6]; 0.01%): pinpt; Hyp (hyperemia score) ([7]; 0.01%): 0.42
47 nM | > 10000 nM | pinpoint | 1.13 | 2450 nM | 1000 nM | O=C(O)CCC/C=C\C[C@@H]1[C@@H](/C=C/[C@@H](O)CCc2ccsc2Cl)[C@H](O)C[C@@H]1O | – | –
7.7 nM | > 10000 nM | pinpt | 0.5 | 2300 nM | > 10000 nM | O=C(O)CCC/C=C\C[C@@H]1[C@@H](/C=C/[C@@H](O)CCc2cc(Cl)sc2Cl)[C@H](O)C[C@@H]1O [drawing 28] | – | –
